Measured values taken from PubChem BioAssay (NCI).
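Cells were grown in 96-well plates and exposed to each compound for 48 hours at five concentrations; endpoints were interpolated linearly between bracketing concentrations, or set to the highest concentration if not reached. The concentration for full growth arrest is given as TGI.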

How the values were obtained:
Assay in all cases: growth of human tumour cells (NCI), 48 h
OVCAR-5 ovarian = test system: OVCAR-5 ovarian
SW-620 colon = test system: SW-620 colon
A498 renal = test system: A498 renal
LOX IMVI melanoma = test system: LOX IMVI melanoma
K-562 leukemia = test system: K-562 leukemia
RPMI-8226 leukemia = test system: RPMI-8226 leukemia
EKVX NSCLC = test system: EKVX NSCLC
IGROV1 ovarian = test system: IGROV1 ovarian
NCI-H23 lung = test system: NCI-H23 lung
SNB-19 CNS = test system: SNB-19 CNS
SN12C renal = test system: SN12C renal
BT-549 breast = test system: BT-549 breast

| SMILES | TGI (OVCAR-5 ovarian) | TGI (SW-620 colon) | TGI (A498 renal) | TGI (LOX IMVI melanoma) | TGI (K-562 leukemia) | TGI (RPMI-8226 leukemia) | TGI (EKVX NSCLC) | TGI (IGROV1 ovarian) | TGI (NCI-H23 lung) | TGI (SNB-19 CNS) | TGI (SN12C renal) | TGI (BT-549 breast) |
| --- | --- | --- | --- | --- | --- | --- | --- | --- | --- | --- | --- | --- |
| Cc1ccc(SCC(CF)OCn2cc(F)c(=O)[nH]c2=O)cc1 (stereo unspecified) | > 100 µM | > 100 µM | > 100 µM | > 100 µM | > 100 µM | > 100 µM | > 100 µM | > 100 µM | > 100 µM | > 100 µM | – | – |
| CSc1nc(NC(=O)O)c(N(C(C)=O)C(=O)O)c(=O)n1C | > 100 µM | > 100 µM | > 100 µM | > 100 µM | > 100 µM | > 100 µM | > 100 µM | > 100 µM | – | > 100 µM | > 100 µM | – |
| O=C1c2c(ccc3c2CCC3)CC12Cc1cc3c(cc1C2)CCC3 | > 100 µM | > 100 µM | > 100 µM | > 100 µM | > 100 µM | > 100 µM | > 100 µM | > 100 µM | > 100 µM | > 100 µM | > 100 µM | – |
| COc1cc(C=Nc2ccc(C(C)C)cc2)cc(OC)c1OC | > 100 µM | > 54.6 µM | > 100 µM | > 100 µM | > 86.7 µM | > 68.4 µM | > 100 µM | > 100 µM | > 100 µM | > 100 µM | > 100 µM | – |
| C=C(Br)CN(C(C)=O)C1CCCCC1 | > 100 µM | > 100 µM | > 100 µM | > 100 µM | > 100 µM | > 100 µM | > 100 µM | > 100 µM | > 100 µM | > 100 µM | > 100 µM | – |
| CC1(C)CCC[C@@]2(C)C1CC[C@H]1CC(O)C3(C)CCC12C3 (stereo partly specified) | 32.2 µM | 30.8 µM | – | 28.9 µM | > 100 µM | 72.6 µM | – | 50.6 µM | 32.8 µM | 31.9 µM | 30.7 µM | – |
| COC(=O)c1ccccc1/C=C1\Cc2cc(C)cc(C)c2C1=O | > 100 µM | > 100 µM | > 100 µM | > 100 µM | > 100 µM | > 100 µM | > 100 µM | > 100 µM | > 100 µM | > 100 µM | > 100 µM | – |
| COc1cc(NCc2ccc3nc(OC)c(OC)nc3c2)cc(OC)c1OC | > 100 µM | > 100 µM | > 100 µM | > 100 µM | > 100 µM | – | > 100 µM | > 100 µM | > 100 µM | > 100 µM | > 100 µM | – |
| CC(C)C1CCC/C=C/C=C/C=C/C=C/C(OC2OC(C)C(O)C(N)C2O)CC2OC(O)(CC(O)CC(O)C(O)CCC(=O)O1)CC(O)C2C(=O)O (stereo unspecified) | – | > 52.5 µM | > 52.5 µM | – | > 52.5 µM | > 52.5 µM | – | > 52.5 µM | – | > 52.5 µM | > 52.5 µM | – |
| CN(C)C(=O)Nc1cc2c3c(c1)CCCN3CCC2 | – | > 10 µM | > 10 µM | > 10 µM | > 10 µM | > 10 µM | > 10 µM | > 10 µM | > 10 µM | > 10 µM | > 10 µM | – |
| O=C(O)c1ccc2c(c1)CC1(C2)Cc2ccccc2C1=O (stereo unspecified) | > 100 µM | > 100 µM | – | > 100 µM | > 100 µM | > 100 µM | > 100 µM | > 100 µM | > 100 µM | > 100 µM | > 100 µM | > 100 µM |
| C#C[C@]1(O)CCC2C3CCc4cc(Oc5nc(F)nc(-c6c7cc8ccccc8cc7c7n6CCS7)n5)ccc4C3CCC21C (stereo partly specified) | – | > 100 µM | – | > 100 µM | > 100 µM | > 100 µM | > 100 µM | > 100 µM | > 100 µM | > 100 µM | > 100 µM | – |
| COc1ccc(NC(C)=O)cc1C1CCC(=O)N1 (stereo unspecified) | > 100 µM | > 100 µM | > 100 µM | > 100 µM | > 100 µM | > 100 µM | > 100 µM | > 100 µM | > 100 µM | > 100 µM | > 100 µM | – |
| CC/C=C/C(=O)CC(O)(C(F)(F)F)C(F)(F)F | > 100 µM | > 100 µM | 89.4 µM | > 100 µM | – | > 100 µM | > 100 µM | > 100 µM | > 100 µM | > 100 µM | > 100 µM | – |
| COC(=O)C1=Cc2cc(OC)c(O)cc2[C@@H](c2ccc(O)c(OC)c2)[C@@H]1C(=O)OC | > 100 µM | > 100 µM | > 100 µM | > 100 µM | > 100 µM | > 100 µM | > 100 µM | > 100 µM | > 100 µM | > 100 µM | > 100 µM | – |
| COC(=O)C12C3C4C5C3(C#N)C1C5(C(=O)OC)C42C(=O)N(C(C)C)C(C)C (stereo unspecified) | > 100 µM | > 65.3 µM | > 100 µM | > 100 µM | > 73.8 µM | > 69.3 µM | > 100 µM | > 100 µM | > 100 µM | > 100 µM | > 100 µM | – |

| SMILES | TGI (OVCAR-5 ovarian) | TGI (SW-620 colon) | TGI (A498 renal) | TGI (LOX IMVI melanoma) | TGI (K-562 leukemia) | TGI (RPMI-8226 leukemia) | TGI (EKVX NSCLC) | TGI (IGROV1 ovarian) | TGI (NCI-H23 lung) | TGI (SNB-19 CNS) | TGI (SN12C renal) | TGI (BT-549 breast) |
| --- | --- | --- | --- | --- | --- | --- | --- | --- | --- | --- | --- | --- |
| CCOC(=O)[C@@H]1ON2O[C@H](OC3CCCC3(c3ccccc3)c3ccccc3)C[C@H]3OC(=O)[C@@H]1C32 (stereo partly specified) | > 100 µM | > 100 µM | 95.9 µM | 86.7 µM | > 100 µM | > 100 µM | > 100 µM | > 100 µM | 65.8 µM | – | > 100 µM | – |
| COc1cc(NP(=O)(Oc2ccccc2)Oc2ccccc2)ccc1Nc1c2ccccc2nc2c1[nH]c1ccccc12 | 30.2 µM | 12.9 µM | 14 µM | > 100 µM | 6.71 µM | – | 44.9 µM | > 100 µM | 12.3 µM | > 100 µM | 2.09 µM | – |
| CSC1=N/C(=C\c2ccco2)C(=O)N1CN1CCCCC1 | > 100 µM | > 100 µM | > 100 µM | > 100 µM | > 100 µM | > 100 µM | > 100 µM | > 100 µM | > 100 µM | > 100 µM | > 100 µM | – |
| COc1ccc2c(c1)N=C1CSC(c3cccc(Br)c3)N1C2 (stereo unspecified) | 56.8 µM | > 100 µM | – | 50 µM | 67.1 µM | 29.7 µM | 33.8 µM | 80.7 µM | 45.3 µM | 78.8 µM | 39.7 µM | 32.4 µM |
| CC1=CC(=O)C(=O)C2=C1OC1(C2)C(C)CCC2C3(C)CCC(O)C(C)(C)C3CCC21C (stereo unspecified) | 37.2 µM | 46.1 µM | – | 35.8 µM | 54.1 µM | 88.3 µM | – | 34.2 µM | 31.3 µM | 32.2 µM | > 100 µM | – |
| CCOC(=O)NC(=O)c1cn(CCCOC(=O)CCCCCCCCCCC(=O)OCCCn2cc(C(=O)NC(=O)OCC)c(=O)n(C)c2=O)c(=O)n(C)c1=O | > 100 µM | > 100 µM | > 100 µM | > 100 µM | > 100 µM | > 100 µM | > 100 µM | > 100 µM | > 100 µM | > 100 µM | > 100 µM | – |
| Cc1ccc(S(=O)(=O)NC2C(=O)c3ccccc3C(=O)C2n2cnc3ccccc32)cc1 (stereo unspecified) | > 100 µM | 94.4 µM | – | > 100 µM | > 100 µM | > 100 µM | > 100 µM | 75 µM | 58.6 µM | 89.7 µM | > 100 µM | > 100 µM |
| O=C(C1C(c2ccccc2)N1C(c1ccccc1)c1ccccc1)C1C(c2ccccc2)N1C(c1ccccc1)c1ccccc1 (stereo unspecified) | 81.2 µM | 37.2 µM | – | – | 20.3 µM | 10.9 µM | > 100 µM | – | – | > 100 µM | 46.9 µM | – |
| Cc1ccc(/C=C/C(=O)c2sc(-c3cccnc3)nc2C)cc1 | > 100 µM | > 100 µM | > 100 µM | > 100 µM | > 100 µM | > 100 µM | > 100 µM | > 100 µM | > 100 µM | – | > 100 µM | – |
| COC(=O)C1[C@@H](C(=O)OC)C12C=Cc1ccccc1C=C2 (stereo partly specified) | > 100 µM | > 100 µM | > 100 µM | > 100 µM | > 100 µM | > 100 µM | > 100 µM | > 100 µM | > 100 µM | > 100 µM | > 100 µM | – |
| COc1ccc2c(c1)CCc1[nH]c3ccccc3c1CCCC2 | > 10 µM | > 10 µM | – | > 10 µM | > 10 µM | > 10 µM | – | > 10 µM | > 10 µM | > 10 µM | > 10 µM | > 10 µM |
| Cc1ccc(Nc2nc(N)nc3c2ncn3C2OC(CO)C(O)C2O)cc1 (stereo unspecified) | > 100 µM | > 100 µM | > 100 µM | > 100 µM | > 100 µM | > 100 µM | > 100 µM | > 100 µM | > 100 µM | > 100 µM | > 100 µM | – |
| C[C@H]1C[C@H](C)c2ccccc2N(C)C1=Nc1ccccc1 | 78 µM | > 100 µM | 84.4 µM | 31.7 µM | > 100 µM | > 100 µM | > 100 µM | 78 µM | 50 µM | > 100 µM | > 100 µM | – |
| O=C(c1ccco1)N(C(=S)N1CCN(c2ccccn2)CC1)C1CCCCC1 | > 100 µM | > 100 µM | – | > 100 µM | > 100 µM | > 100 µM | – | > 100 µM | > 100 µM | > 100 µM | > 100 µM | – |
| CCCN1CN(C(C(=O)N[C@@H]2C(=O)N3C(C(=O)O)=C(C)CSC23)c2ccc(O)cc2)CSC1=S (stereo partly specified) | > 100 µM | 30.8 µM | > 100 µM | > 100 µM | > 100 µM | > 100 µM | > 100 µM | > 100 µM | > 100 µM | > 100 µM | > 100 µM | – |
